{"source": "patent US20150174081A1", "about": "“LIQUID PHARMACEUTICAL COMPOSITION COMPRISING NITISINONE” (Swedish Orphan Biovitrum International AB, priority 2011, published 2015)", "key": {"[1]": {"assay": "Particle size diameter (PSD) of nitisinone before and after air-jet micronization", "format": "physicochemical", "excerpt": "A lab-scale air-jet mill, 2 inches qualification model, Sturtevant Inc., was used to micronize nitisinone obtained from the company Bachem, Switzerland. The mill was operated with tangential flow (i.e. the air and drug are fed in the same direction in the milling chamber). The unmilled drug was fed into the mill using a Venturi feed system, Syncron®, Magnet Feeder model F-TO-C, where air was used to draw the feed material into the milling chamber. A product filter bag was affixed to the outlet of the mill, through which the exhausts and the milled drug collects. The milling conditions were set as follows: • Grind air: Dry nitrogen gas • Grind pressure: 90 psi • Feed pressure: 85 psi • Room conditions: Ambient 5 g of the API was passed through the lab-scale micronizer and the resulting material was collected (3.7 g). The material was analyzed for/by particle size diameter (PSD), assay and purity by high performance liquid chromatography (HPLC), x-ray powder diffraction (XRPD), differential scanning calorimetry (DSC) and polarized light microscopy (PLM)."}, "[2]": {"assay": "Stability of oxotetrahydroxanthenone solutions, LC-MS", "format": "physicochemical", "description": "The stability study of the main degradation product in Example 6, oxotetrahydroxanthenone, is performed under similar conditions as described in Example 6. Samples of oxotetrahydroxanthenone (OTHX), 81 μg/ml in either citrate buffer pH 3.0 or phosphate buffer pH 6.8, were put on stability at +5° C., +25° C. and +37° C., respectively, for 6 months. The concentrations of OTHX and the secondary degradation products 1,3-cyclohexanedione (CHD) and 4-(trifluoromethyl)salicylic acid (TSA) were analyzed by LC-MS. The results, shown in Table XI, below, are expressed as percent of the initial concentration of OTHX. The mass balance expressed as the total recovery of CHD+OTHX+TSA compared to the initial concentration of OTHX were calculated from MmOTHX/(Mm CHD+MmTSA)×(CHDconc+TSAconc)+OTHXconc expressed in μg/ml where MmOTHX, MmCHD and MmTSA are the molecular masses corresponding to 282, 202 and 206 g/mol, respectively."}, "[3]": {"details": "Citrate buffer pH 3.0, 5° C., 1.8 months"}, "[4]": {"details": "Citrate buffer pH 3.0, 5° C., 3 months"}, "[5]": {"details": "Citrate buffer pH 3.0, 5° C., 6 months"}, "[6]": {"details": "Citrate buffer pH 3.0, 25° C., 1.8 months"}, "[7]": {"details": "Citrate buffer pH 3.0, 25° C., 3 months"}, "[8]": {"details": "Citrate buffer pH 3.0, 25° C., 6 months"}, "[9]": {"details": "Citrate buffer pH 3.0, 37° C., 1.8 months"}, "[10]": {"details": "Citrate buffer pH 3.0, 37° C., 3 months"}, "[11]": {"details": "Citrate buffer pH 3.0, 37° C., 6 months"}, "[12]": {"details": "Phosphate buffer pH 6.8, 5° C., 1.8 months"}, "[13]": {"details": "Phosphate buffer pH 6.8, 5° C., 3 months"}, "[14]": {"details": "Phosphate buffer pH 6.8, 5° C., 6 months"}, "[15]": {"details": "Phosphate buffer pH 6.8, 25° C., 1.8 months"}, "[16]": {"details": "Phosphate buffer pH 6.8, 25° C., 3 months"}, "[17]": {"details": "Phosphate buffer pH 6.8, 25° C., 6 months"}, "[18]": {"details": "Phosphate buffer pH 6.8, 37° C., 1.8 months"}, "[19]": {"details": "Phosphate buffer pH 6.8, 37° C., 3 months"}, "[20]": {"details": "Phosphate buffer pH 6.8, 37° C., 6 months"}}, "data": [{"smiles": "O=C1CCCC(=O)C1C(=O)c1ccc(C(F)(F)F)cc1[N+](=O)[O-]", "note": "[Micronized material, 2-(2-nitro-4-trifluoromethylbenzoyl)-1,3-cyclohexanedione]", "values": [{"measurement": "Particle size diameter d10", "setting": "[1]", "value": 0.30, "unit": "microns"}, {"measurement": "Particle size diameter d20", "setting": "[1]", "value": 0.47, "unit": "microns"}, {"measurement": "Particle size diameter d50", "setting": "[1]", "value": 1.29, "unit": "microns"}, {"measurement": "Particle size diameter d80", "setting": "[1]", "value": 2.59, "unit": "microns"}, {"measurement": "Particle size diameter d90", "setting": "[1]", "value": 3.59, "unit": "microns"}]}, {"smiles": "O=C1CCCc2oc3cc(C(F)(F)F)ccc3c(=O)c21", "note": "[OTHX, 6-(trifluoromethyl)-3,4-dihydro-1H-xanthenene-1,9(2H)-dione]", "values": [{"measurement": "Concentration of OTHX", "setting": "[2]; [3]", "value": "96.7% of the initial concentration of OTHX"}, {"measurement": "Concentration of secondary degradation product CHD", "setting": "[2]; [3]", "value": "0.0% of the initial concentration of OTHX"}, {"measurement": "Concentration of secondary degradation product TSA", "setting": "[2]; [3]", "value": "0.0% of the initial concentration of OTHX"}, {"measurement": "Concentration of OTHX", "setting": "[2]; [4]", "value": "96.9% of the initial concentration of OTHX"}, {"measurement": "Concentration of secondary degradation product CHD", "setting": "[2]; [4]", "value": "0.0% of the initial concentration of OTHX"}, {"measurement": "Concentration of secondary degradation product TSA", "setting": "[2]; [4]", "value": "0.0% of the initial concentration of OTHX"}, {"measurement": "Concentration of OTHX", "setting": "[2]; [5]", "value": "91.6% of the initial concentration of OTHX"}, {"measurement": "Concentration of secondary degradation product CHD", "setting": "[2]; [5]", "value": "0.0% of the initial concentration of OTHX"}, {"measurement": "Concentration of secondary degradation product TSA", "setting": "[2]; [5]", "value": "0.0% of the initial concentration of OTHX"}, {"measurement": "Concentration of OTHX", "setting": "[2]; [6]", "value": "96.7% of the initial concentration of OTHX"}, {"measurement": "Concentration of secondary degradation product CHD", "setting": "[2]; [6]", "value": "0.0% of the initial concentration of OTHX"}, {"measurement": "Concentration of secondary degradation product TSA", "setting": "[2]; [6]", "value": "0.0% of the initial concentration of OTHX"}, {"measurement": "Concentration of OTHX", "setting": "[2]; [7]", "value": "102.7% of the initial concentration of OTHX"}, {"measurement": "Concentration of secondary degradation product CHD", "setting": "[2]; [7]", "value": "0.0% of the initial concentration of OTHX"}, {"measurement": "Concentration of secondary degradation product TSA", "setting": "[2]; [7]", "value": "0.0% of the initial concentration of OTHX"}, {"measurement": "Concentration of OTHX", "setting": "[2]; [8]", "value": "92.3% of the initial concentration of OTHX"}, {"measurement": "Concentration of secondary degradation product CHD", "setting": "[2]; [8]", "value": "0.0% of the initial concentration of OTHX"}, {"measurement": "Concentration of secondary degradation product TSA", "setting": "[2]; [8]", "value": "0.0% of the initial concentration of OTHX"}, {"measurement": "Concentration of OTHX", "setting": "[2]; [9]", "value": "97.9% of the initial concentration of OTHX"}, {"measurement": "Concentration of secondary degradation product CHD", "setting": "[2]; [9]", "value": "0.0% of the initial concentration of OTHX"}, {"measurement": "Concentration of secondary degradation product TSA", "setting": "[2]; [9]", "value": "0.2% of the initial concentration of OTHX"}, {"measurement": "Concentration of OTHX", "setting": "[2]; [10]", "value": "97.7% of the initial concentration of OTHX"}, {"measurement": "Concentration of secondary degradation product CHD", "setting": "[2]; [10]", "value": "0.0% of the initial concentration of OTHX"}, {"measurement": "Concentration of secondary degradation product TSA", "setting": "[2]; [10]", "value": "0.0% of the initial concentration of OTHX"}, {"measurement": "Concentration of OTHX", "setting": "[2]; [11]", "value": "95.3% of the initial concentration of OTHX"}, {"measurement": "Concentration of secondary degradation product CHD", "setting": "[2]; [11]", "value": "0.0% of the initial concentration of OTHX"}, {"measurement": "Concentration of secondary degradation product TSA", "setting": "[2]; [11]", "value": "0.0% of the initial concentration of OTHX"}, {"measurement": "Concentration of OTHX", "setting": "[2]; [12]", "value": "96.7% of the initial concentration of OTHX"}, {"measurement": "Concentration of secondary degradation product CHD", "setting": "[2]; [12]", "value": "0.0% of the initial concentration of OTHX"}, {"measurement": "Concentration of secondary degradation product TSA", "setting": "[2]; [12]", "value": "1.4% of the initial concentration of OTHX"}, {"measurement": "Concentration of OTHX", "setting": "[2]; [13]", "value": "91.0% of the initial concentration of OTHX"}, {"measurement": "Concentration of secondary degradation product CHD", "setting": "[2]; [13]", "value": "0.7% of the initial concentration of OTHX"}, {"measurement": "Concentration of secondary degradation product TSA", "setting": "[2]; [13]", "value": "1.9% of the initial concentration of OTHX"}, {"measurement": "Concentration of OTHX", "setting": "[2]; [14]", "value": "83.1% of the initial concentration of OTHX"}, {"measurement": "Concentration of secondary degradation product CHD", "setting": "[2]; [14]", "value": "0.0% of the initial concentration of OTHX"}, {"measurement": "Concentration of secondary degradation product TSA", "setting": "[2]; [14]", "value": "0.0% of the initial concentration of OTHX"}, {"measurement": "Concentration of OTHX", "setting": "[2]; [15]", "value": "74.8% of the initial concentration of OTHX"}, {"measurement": "Concentration of secondary degradation product CHD", "setting": "[2]; [15]", "value": "7.7% of the initial concentration of OTHX"}, {"measurement": "Concentration of secondary degradation product TSA", "setting": "[2]; [15]", "value": "13.0% of the initial concentration of OTHX"}, {"measurement": "Concentration of OTHX", "setting": "[2]; [16]", "value": "63.2% of the initial concentration of OTHX"}, {"measurement": "Concentration of secondary degradation product CHD", "setting": "[2]; [16]", "value": "9.7% of the initial concentration of OTHX"}, {"measurement": "Concentration of secondary degradation product TSA", "setting": "[2]; [16]", "value": "20.2% of the initial concentration of OTHX"}, {"measurement": "Concentration of OTHX", "setting": "[2]; [17]", "value": "44.8% of the initial concentration of OTHX"}, {"measurement": "Concentration of secondary degradation product CHD", "setting": "[2]; [17]", "value": "25.2% of the initial concentration of OTHX"}, {"measurement": "Concentration of secondary degradation product TSA", "setting": "[2]; [17]", "value": "36.4% of the initial concentration of OTHX"}, {"measurement": "Concentration of OTHX", "setting": "[2]; [18]", "value": "33.5% of the initial concentration of OTHX"}, {"measurement": "Concentration of secondary degradation product CHD", "setting": "[2]; [18]", "value": "22.2% of the initial concentration of OTHX"}, {"measurement": "Concentration of secondary degradation product TSA", "setting": "[2]; [18]", "value": "38.6% of the initial concentration of OTHX"}, {"measurement": "Concentration of OTHX", "setting": "[2]; [19]", "value": "13.7% of the initial concentration of OTHX"}, {"measurement": "Concentration of secondary degradation product CHD", "setting": "[2]; [19]", "value": "21.5% of the initial concentration of OTHX"}, {"measurement": "Concentration of secondary degradation product TSA", "setting": "[2]; [19]", "value": "49.1% of the initial concentration of OTHX"}, {"measurement": "Concentration of OTHX", "setting": "[2]; [20]", "value": "0.4% of the initial concentration of OTHX"}, {"measurement": "Concentration of secondary degradation product CHD", "setting": "[2]; [20]", "value": "32.8% of the initial concentration of OTHX"}, {"measurement": "Concentration of secondary degradation product TSA", "setting": "[2]; [20]", "value": "66.4% of the initial concentration of OTHX"}]}, {"smiles": "O=C1CCCC(=O)C1C(=O)c1ccc(C(F)(F)F)cc1[N+](=O)[O-]", "note": "[Start material, 2-(2-nitro-4-trifluoromethylbenzoyl)-1,3-cyclohexanedione]", "values": [{"measurement": "Particle size diameter d10", "setting": "[1]", "value": 20.50, "unit": "microns"}, {"measurement": "Particle size diameter d20", "setting": "[1]", "value": 33.10, "unit": "microns"}, {"measurement": "Particle size diameter d50", "setting": "[1]", "value": 60.01, "unit": "microns"}, {"measurement": "Particle size diameter d80", "setting": "[1]", "value": 94.42, "unit": "microns"}, {"measurement": "Particle size diameter d90", "setting": "[1]", "value": 115.11, "unit": "microns"}]}]}
